Among the test systems are MDA-MB-435; UO-31 renal; CCRF-CEM leukemia; MOLT-4 leukemia; NCI-H460 lung; RXF 393 renal; HL-60(TB) leukemia.
Holding throughout (assay): DTP human tumour cell line panel, 48 h

SMILES strings stand for the structures.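 Cells were grown in 96-well plates and exposed to each compound for 48 hours at five concentrations; endpoints were interpolated linearly between bracketing concentrations, or set to the highest concentration if not reached. The concentration for 50% growth inhibition is given as GI50. TGI: concentration producing complete growth inhibition.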 A value given as a limit tells only on which side of the number the result lay.

For the compound `N#Cc1ccc(C2Oc3ccc(Cl)cc3C=C2[N+](=O)[O-])cc1` (configuration not stated), the total growth inhibition concentration (TGI) with MDA-MB-435 stood at 3.56 µM; in the assay on UO-31 renal, 2.99 µM; in the assay on CCRF-CEM leukemia it was 1.03 µM; with MOLT-4 leukemia, 4.24 µM; with NCI-H460 lung it was 5.18 µM; in the assay with RXF 393 renal, 9.86 µM. In the assay with HL-60(TB) leukemia, this compound showed a TGI of 3.91 µM.
Consider `O=C(c1ccccc1)c1c(C(F)(F)F)n([O-])c2cc(F)c(F)cc2[n+]1=O`, for which the TGI with MDA-MB-435 was 4.14 µM; in the assay on UO-31 renal, 2.4 µM; in the assay on CCRF-CEM leukemia, greater than 100 µM; in the assay with MOLT-4 leukemia it was 1.97 µM; in the assay with NCI-H460 lung it was 8.53 µM; in the assay on RXF 393 renal it was 2.22 µM. Moreover, the TGI with HL-60(TB) leukemia worked out at 1.55 µM. In addition, in the assay on CCRF-CEM leukemia, the GI50 is 8.72 µM.
As for `COc1ccc(-c2nc(-c3cnccn3)n(Cc3ccccc3)n2)cc1`, the TGI in the assay with MDA-MB-435, in the assay on UO-31 renal, in the assay on CCRF-CEM leukemia, in the assay with MOLT-4 leukemia, in the assay with NCI-H460 lung and in the assay on RXF 393 renal was greater than 100 µM in each case. In the assay on HL-60(TB) leukemia, this compound returned a TGI greater than 100 µM.
Regarding `COc1cc2[nH]c(=O)c3cc(C)cc4c(Cl)nc(c1OC)c2c43`, the TGI in the assay with MDA-MB-435 was greater than 100 µM; in the assay on UO-31 renal, greater than 100 µM; with CCRF-CEM leukemia it was greater than 100 µM; in the assay on MOLT-4 leukemia it was greater than 100 µM; in the assay with NCI-H460 lung it was greater than 100 µM; with RXF 393 renal, 58.1 µM. Further, the total growth inhibition concentration (TGI) in the assay on HL-60(TB) leukemia is greater than 100 µM.
For `CC(=O)N1C(Nc2cccc3nc(C)ccc23)CCN1c1ccccc1` (configuration not stated), the TGI in the assay on MDA-MB-435, in the assay with UO-31 renal, with CCRF-CEM leukemia, in the assay on MOLT-4 leukemia, in the assay on NCI-H460 lung and with RXF 393 renal was greater than 10 µM in each case. The compound further displayed a TGI in the assay on HL-60(TB) leukemia greater than 10 µM.
As for `S=C(N/N=C(\C(=N/NC(=S)N1CCCCC1)c1ccccn1)c1ccccn1)N1CCCCC1`, the TGI with MDA-MB-435 is greater than 100 µM; in the assay on UO-31 renal it was greater than 100 µM; in the assay with CCRF-CEM leukemia, 57.4 µM; in the assay on MOLT-4 leukemia it was greater than 100 µM; in the assay on NCI-H460 lung it was greater than 100 µM; in the assay on RXF 393 renal it was 73.4 µM. Also, the total growth inhibition concentration (TGI) with HL-60(TB) leukemia worked out at 19.8 µM.
Take `Cc1cn([C@@H]2C[C@H](CO)[C@@H]2O)c(=O)[nH]c1=O`: the TGI in the assay with MDA-MB-435, with UO-31 renal, in the assay on CCRF-CEM leukemia, in the assay on MOLT-4 leukemia, in the assay with NCI-H460 lung and in the assay on RXF 393 renal was greater than 100 µM each time. This compound also displayed a TGI in the assay on HL-60(TB) leukemia greater than 100 µM.
For `CC(=O)c1[nH]c(Nc2ccc(C)cc2)c(C(=S)Nc2ccccc2)c1N`, the TGI is 30.9 µM in the assay on MDA-MB-435; 28.4 µM with UO-31 renal; 62.1 µM in the assay on CCRF-CEM leukemia; greater than 100 µM in the assay on MOLT-4 leukemia; 31.9 µM in the assay with NCI-H460 lung; 27.9 µM in the assay with RXF 393 renal. Further, in the assay on HL-60(TB) leukemia, the TGI was determined as 54.1 µM.
Consider `CCOC1NC(/N=C/c2ccc(OC)cc2)=C(C#N)C1C#N` (configuration not stated), for which the TGI was greater than 100 µM in the assay on MDA-MB-435; greater than 100 µM in the assay on UO-31 renal; 82.2 µM in the assay with CCRF-CEM leukemia; greater than 100 µM in the assay with MOLT-4 leukemia; greater than 100 µM with NCI-H460 lung; greater than 100 µM in the assay with RXF 393 renal. Moreover, the TGI in the assay on HL-60(TB) leukemia is greater than 100 µM.
`OC(C1CCCCCCCCCC1)C(O)C1CCCCCCCCCC1` (configuration not stated): the TGI in the assay with MDA-MB-435, with UO-31 renal, in the assay on CCRF-CEM leukemia, in the assay with MOLT-4 leukemia, with NCI-H460 lung and in the assay with RXF 393 renal was greater than 100 µM throughout. Also, the TGI with HL-60(TB) leukemia is greater than 100 µM.
On to `O=C1O[C@H]2C3C4CCC(C4[C@@H]2I)[C@H]13` (some centres not stated), for which the TGI in the assay with MDA-MB-435, with UO-31 renal, in the assay on CCRF-CEM leukemia, in the assay with MOLT-4 leukemia, in the assay with NCI-H460 lung and in the assay with RXF 393 renal was greater than 100 µM throughout. In the assay on HL-60(TB) leukemia, this compound had a TGI greater than 100 µM.
With `COc1ccc(C2C(C#N)=C(S)N(C3OC(CO)C(O)C(O)C3O)C(C)=C2C(C)=O)cc1` (configuration not stated), the TGI with MDA-MB-435, in the assay with UO-31 renal, in the assay with CCRF-CEM leukemia, with MOLT-4 leukemia, in the assay with NCI-H460 lung and in the assay with RXF 393 renal was greater than 100 µM each time. Besides, in the assay with HL-60(TB) leukemia, the TGI was greater than 100 µM.
As for `CC(=O)c1ccc2c3c1O[C@H]1c4[nH]c5ccccc5c4C[C@@]4(O)[C@@H](C2)N(CC2CC2)CC[C@]314`, the TGI in the assay on MDA-MB-435 came to 32.5 µM; in the assay on UO-31 renal it was 28.7 µM; with CCRF-CEM leukemia it was 28.2 µM; with MOLT-4 leukemia it was 47.6 µM; in the assay on NCI-H460 lung it was 17.7 µM; in the assay with RXF 393 renal it was 27.3 µM. Also, in the assay on HL-60(TB) leukemia, the TGI came out at 37 µM.
For `Cc1ccc(N=C2SC(=NN(C)C)SC2=Nc2ccc(C)cc2)cc1`, the TGI with MDA-MB-435, with UO-31 renal, in the assay with CCRF-CEM leukemia, in the assay with MOLT-4 leukemia, in the assay with NCI-H460 lung and with RXF 393 renal was greater than 100 µM in each case. Besides, the TGI with HL-60(TB) leukemia was greater than 100 µM.
On to `COc1cc(O)cc(O)c1C(=O)CC(Cl)(Cl)Cl`, for which the TGI in the assay on MDA-MB-435, in the assay with UO-31 renal, in the assay with CCRF-CEM leukemia, in the assay with MOLT-4 leukemia, in the assay with NCI-H460 lung and in the assay on RXF 393 renal was greater than 100 µM in each case. For the same compound, in the assay on HL-60(TB) leukemia, the TGI was greater than 100 µM.
`Nc1ccccc1OCCCOc1ccccc1N`: the concentration for total growth inhibition (TGI) in the assay with MDA-MB-435, with UO-31 renal, in the assay on CCRF-CEM leukemia, in the assay on MOLT-4 leukemia, in the assay on NCI-H460 lung and in the assay with RXF 393 renal was greater than 100 µM in each case. Further, in the assay with HL-60(TB) leukemia, the TGI is greater than 100 µM.
With `COc1ccc(Cn2c3ccc([N+](=O)[O-])cc3c(=O)n2Cc2ccccn2)cc1`, the TGI in the assay on MDA-MB-435, in the assay with UO-31 renal, in the assay on CCRF-CEM leukemia, with MOLT-4 leukemia, with NCI-H460 lung and in the assay with RXF 393 renal was greater than 100 µM throughout. For the same compound, the TGI in the assay with HL-60(TB) leukemia stood at 75.1 µM.
Turning to `CC(C)C1=C(Cc2ccccc2)C(=O)O/C1=C\c1ccc(O)c(Cl)c1`, the TGI in the assay with MDA-MB-435 was found to be 30.7 µM; with UO-31 renal, 27.5 µM; with CCRF-CEM leukemia it was 46.8 µM; with MOLT-4 leukemia, 28.1 µM; in the assay on NCI-H460 lung, 31.1 µM; in the assay with RXF 393 renal, 31.2 µM. Moreover, in the assay with HL-60(TB) leukemia, the TGI is 37.7 µM.

The values above are taken from PubChem BioAssay (NCI).
